# In US10800741B2 (ANCUREALL PHARMACEUTICAL (SHANGHAI) CO., LTD., priority 2017, dated 2020):
# Read-outs that look alike come from different tables or passages of the source.
# What was measured:
# protein kinases [1] = target: T1, protein kinases (Homo sapiens, UniProt P36888, R834Q); assay: KINOMEscan in vitro binding to 468 labeled protein kinases; conditions: FLT3(R834Q), read-out: Test compound/solvent control (%)
# T1 construct: purchased Discovery X company (USA), KINOMEscan screening platform
# T1 sequence (P36888 27-993 R834Q): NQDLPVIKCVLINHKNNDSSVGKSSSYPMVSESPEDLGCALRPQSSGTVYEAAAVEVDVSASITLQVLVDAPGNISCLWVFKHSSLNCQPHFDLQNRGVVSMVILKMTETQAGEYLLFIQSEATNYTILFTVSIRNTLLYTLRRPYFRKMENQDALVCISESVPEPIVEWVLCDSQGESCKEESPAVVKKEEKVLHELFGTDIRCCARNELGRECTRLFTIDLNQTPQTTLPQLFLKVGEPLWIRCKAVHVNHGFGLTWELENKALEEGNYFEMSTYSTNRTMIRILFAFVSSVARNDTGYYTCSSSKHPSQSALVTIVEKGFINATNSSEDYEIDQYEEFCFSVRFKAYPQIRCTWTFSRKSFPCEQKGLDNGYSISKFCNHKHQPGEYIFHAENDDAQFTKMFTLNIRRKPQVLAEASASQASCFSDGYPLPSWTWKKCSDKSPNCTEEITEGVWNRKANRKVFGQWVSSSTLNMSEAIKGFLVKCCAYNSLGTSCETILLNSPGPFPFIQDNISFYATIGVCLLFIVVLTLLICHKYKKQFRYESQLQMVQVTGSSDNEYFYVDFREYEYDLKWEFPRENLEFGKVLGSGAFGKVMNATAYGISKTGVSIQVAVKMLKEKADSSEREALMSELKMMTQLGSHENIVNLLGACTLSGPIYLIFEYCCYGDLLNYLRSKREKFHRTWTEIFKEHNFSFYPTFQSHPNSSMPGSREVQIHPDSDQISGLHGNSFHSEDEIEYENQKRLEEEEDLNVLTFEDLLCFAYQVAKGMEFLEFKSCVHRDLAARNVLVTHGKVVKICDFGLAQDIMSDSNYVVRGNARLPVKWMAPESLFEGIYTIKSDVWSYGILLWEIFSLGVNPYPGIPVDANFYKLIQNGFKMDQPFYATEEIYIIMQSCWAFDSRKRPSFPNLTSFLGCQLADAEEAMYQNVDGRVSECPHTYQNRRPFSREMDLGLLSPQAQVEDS
# In short: (§1)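 Duplicate in vitro binding reactions at 1 nM, 10 nM and 1000 nM compound against a panel of 468 labelled protein kinases (KINOMEscan). Binding expressed relative to solvent control as a percentage, stronger affinity giving a lower value.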
# protein kinases [2] = target: T2, protein kinases (Homo sapiens, UniProt P21802); assay: as above; conditions: FGFR2, read-out: Test compound/solvent control (%)
# T2 construct: purchased Discovery X company (USA), KINOMEscan screening platform
# T2 sequence (P21802 22-821): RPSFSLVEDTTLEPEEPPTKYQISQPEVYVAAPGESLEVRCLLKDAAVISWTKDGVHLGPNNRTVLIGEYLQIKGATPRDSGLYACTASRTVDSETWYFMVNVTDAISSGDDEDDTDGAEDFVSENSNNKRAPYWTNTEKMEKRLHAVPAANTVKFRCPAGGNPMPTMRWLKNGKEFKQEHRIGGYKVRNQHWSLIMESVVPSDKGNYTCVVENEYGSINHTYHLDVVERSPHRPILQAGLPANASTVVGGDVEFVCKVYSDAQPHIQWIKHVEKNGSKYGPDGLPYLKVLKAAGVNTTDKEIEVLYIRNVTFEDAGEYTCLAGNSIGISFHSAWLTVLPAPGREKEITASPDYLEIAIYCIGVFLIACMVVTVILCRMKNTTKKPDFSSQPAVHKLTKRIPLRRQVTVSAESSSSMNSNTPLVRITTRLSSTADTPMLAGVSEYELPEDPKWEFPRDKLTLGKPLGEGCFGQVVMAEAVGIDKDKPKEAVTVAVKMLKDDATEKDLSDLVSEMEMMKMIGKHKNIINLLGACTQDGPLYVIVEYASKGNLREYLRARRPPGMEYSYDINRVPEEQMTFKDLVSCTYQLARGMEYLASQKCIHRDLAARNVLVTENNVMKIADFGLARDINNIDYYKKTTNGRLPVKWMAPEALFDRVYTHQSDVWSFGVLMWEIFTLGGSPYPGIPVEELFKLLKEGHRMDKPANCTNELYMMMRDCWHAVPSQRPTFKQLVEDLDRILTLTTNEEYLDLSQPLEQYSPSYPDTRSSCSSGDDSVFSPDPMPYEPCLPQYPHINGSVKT
# In short: as §1
# protein kinases [3] = target: T3, protein kinases (Homo sapiens, UniProt P00519); assay: as above; conditions: read-out: Test compound/solvent control (%); for remaining binding at 0.001 µM: 1 nM; for remaining binding at 0.01 µM: 10 nM; for remaining binding at 1 µM: 1000 nM
# T3 construct: purchased Discovery X company (USA), KINOMEscan screening platform
# T3 sequence (P00519 whole entry): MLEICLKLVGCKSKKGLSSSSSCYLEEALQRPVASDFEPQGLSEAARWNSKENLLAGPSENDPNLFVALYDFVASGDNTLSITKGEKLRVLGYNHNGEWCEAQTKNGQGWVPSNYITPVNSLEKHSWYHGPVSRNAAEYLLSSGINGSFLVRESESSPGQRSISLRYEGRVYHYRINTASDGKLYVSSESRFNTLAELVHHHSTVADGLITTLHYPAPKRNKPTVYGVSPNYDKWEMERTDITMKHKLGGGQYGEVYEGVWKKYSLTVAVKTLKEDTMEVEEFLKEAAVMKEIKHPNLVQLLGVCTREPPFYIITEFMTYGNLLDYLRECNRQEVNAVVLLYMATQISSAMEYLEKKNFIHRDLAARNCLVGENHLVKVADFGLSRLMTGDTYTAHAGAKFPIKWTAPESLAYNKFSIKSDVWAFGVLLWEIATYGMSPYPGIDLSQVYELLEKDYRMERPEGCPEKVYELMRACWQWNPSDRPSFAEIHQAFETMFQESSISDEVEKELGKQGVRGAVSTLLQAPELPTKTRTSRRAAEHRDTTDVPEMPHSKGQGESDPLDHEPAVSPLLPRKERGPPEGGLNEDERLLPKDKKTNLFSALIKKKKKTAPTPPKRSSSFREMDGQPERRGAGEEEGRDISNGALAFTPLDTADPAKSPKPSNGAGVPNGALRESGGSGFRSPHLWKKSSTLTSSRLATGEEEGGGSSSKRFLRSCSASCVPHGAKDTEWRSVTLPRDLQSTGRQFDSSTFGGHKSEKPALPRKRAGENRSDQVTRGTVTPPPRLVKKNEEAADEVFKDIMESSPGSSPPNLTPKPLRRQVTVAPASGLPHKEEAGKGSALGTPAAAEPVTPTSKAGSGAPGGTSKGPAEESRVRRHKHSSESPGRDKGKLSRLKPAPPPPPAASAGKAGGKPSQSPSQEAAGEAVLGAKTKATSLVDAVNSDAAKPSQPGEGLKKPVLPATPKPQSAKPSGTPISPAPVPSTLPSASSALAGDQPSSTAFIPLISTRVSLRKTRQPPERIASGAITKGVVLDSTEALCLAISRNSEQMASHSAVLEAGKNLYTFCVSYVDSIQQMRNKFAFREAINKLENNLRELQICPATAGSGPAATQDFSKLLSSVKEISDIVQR
# In short: as §1
# protein kinases [4] = target: T4, protein kinases (Homo sapiens, UniProt P16234); assay: as above; conditions: PDGFRA, read-out: Test compound/solvent control (%)
# T4 construct: purchased Discovery X company (USA), KINOMEscan screening platform
# T4 sequence (P16234 24-1089): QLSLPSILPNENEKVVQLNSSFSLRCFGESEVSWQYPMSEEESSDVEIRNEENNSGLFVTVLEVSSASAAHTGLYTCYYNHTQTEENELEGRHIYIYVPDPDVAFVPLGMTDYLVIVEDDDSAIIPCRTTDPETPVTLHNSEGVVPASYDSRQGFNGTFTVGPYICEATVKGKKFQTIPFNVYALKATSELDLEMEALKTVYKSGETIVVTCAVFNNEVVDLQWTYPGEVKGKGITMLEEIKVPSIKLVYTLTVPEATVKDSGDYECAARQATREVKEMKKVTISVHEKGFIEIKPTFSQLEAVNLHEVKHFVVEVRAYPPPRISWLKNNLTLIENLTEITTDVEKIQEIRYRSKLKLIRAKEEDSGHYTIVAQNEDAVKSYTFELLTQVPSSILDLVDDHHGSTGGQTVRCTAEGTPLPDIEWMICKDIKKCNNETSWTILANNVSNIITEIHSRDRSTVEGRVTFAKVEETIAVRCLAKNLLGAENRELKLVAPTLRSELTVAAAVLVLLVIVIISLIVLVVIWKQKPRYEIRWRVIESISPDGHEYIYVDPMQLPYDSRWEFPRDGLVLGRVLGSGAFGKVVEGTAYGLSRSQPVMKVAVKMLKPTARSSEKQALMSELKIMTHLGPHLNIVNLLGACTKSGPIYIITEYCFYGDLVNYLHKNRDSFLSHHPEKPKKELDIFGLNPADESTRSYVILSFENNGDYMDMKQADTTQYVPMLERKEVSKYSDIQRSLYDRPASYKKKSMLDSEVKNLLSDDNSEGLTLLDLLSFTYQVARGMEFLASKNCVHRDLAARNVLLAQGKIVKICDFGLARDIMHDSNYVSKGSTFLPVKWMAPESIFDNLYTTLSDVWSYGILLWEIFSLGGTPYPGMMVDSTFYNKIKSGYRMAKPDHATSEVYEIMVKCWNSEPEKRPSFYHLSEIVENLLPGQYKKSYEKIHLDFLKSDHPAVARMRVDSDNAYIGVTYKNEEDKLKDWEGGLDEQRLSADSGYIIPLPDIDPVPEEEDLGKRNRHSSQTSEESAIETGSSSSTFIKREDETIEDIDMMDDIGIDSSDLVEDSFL
# In short: as §1
# protein kinases [5] = target: T5, protein kinases (Homo sapiens, UniProt P00519, F317L); assay: as above; conditions: read-out: Test compound/solvent control (%); for remaining binding at 0.001 µM: 1 nM; for remaining binding at 0.01 µM: 10 nM; for remaining binding at 1 µM: 1000 nM
# T5 construct: purchased Discovery X company (USA), KINOMEscan screening platform
# T5 sequence (P00519 whole entry F317L): as the sequence (P00519 whole entry) above, with F317L counted along it
# In short: as §1
# [6] = test system: human non-small cell lung cancer cell line NCI-H1299 (NRAS Q61K mutation); assay: Growth inhibition in combination with MEK1/2 inhibitor Trametinib, NCI-H1299 (NRAS Q61K mutation); type: cell-based; conditions: 5 days
# Procedure: Test Example 5 Synergistic Inhibition Effect of the Present Compounds in Combination with MEK1/2 Inhibitor on the Growth of RAS Mutant Tumor Cells In Vitro
# The cell culture, drug treatment and MTT assay of human intestinal cancer cell line HCT116 (KRAS G13D mutation) and human non-small cell lung cancer cell line NCI-H1299 (NRAS Q61K mutation) were performed according to the method of test example 1. Cells were treated with the MEK1/2 inhibitor Trametinib at 25 nM, 2.5 nM and 0.25 nM alone or in combination with compound 66 or 125 of the present invention (5 days).
structure (smiles),measurement,setting,value
"COCCOc1cc2nccc(Oc3ccc(NC(=O)Nc4cc(C(C)(C)C)n[nH]4)c(Cl)c3)c2cc1NC(C)=O [Compound 66, N-[4-{4-[3-(5-tert-butyl-2H-pyrazol-3-yl)-ureido]-3-chloro-phenoxy}-7-(2-methoxy-ethoxy)-quinolin-6-yl]-acetamide]",remaining binding at 0.001 µM,protein kinases [1]; 1 nM,83%
same,remaining binding at 0.01 µM,protein kinases [1]; 10 nM,45%
same,remaining binding at 1 µM,protein kinases [1]; 1000 nM,0.6%
same,remaining binding at 0.001 µM,protein kinases [2]; 1 nM,93%
same,remaining binding at 0.01 µM,protein kinases [2]; 10 nM,71%
same,remaining binding at 1 µM,protein kinases [2]; 1000 nM,0.25%
same,remaining binding at 0.001 µM,protein kinases [3]; ABL1-phosphorylated,49%
same,remaining binding at 0.01 µM,protein kinases [3]; ABL1-phosphorylated,9.9%
same,remaining binding at 1 µM,protein kinases [3]; ABL1-phosphorylated,0.1%
same,remaining binding at 0.001 µM,protein kinases [3]; ABL1-unphosphorylated,41%
same,remaining binding at 0.01 µM,protein kinases [3]; ABL1-unphosphorylated,8.3%
same,remaining binding at 1 µM,protein kinases [3]; ABL1-unphosphorylated,0%
same,remaining binding at 0.001 µM,protein kinases [4]; 1 nM,88%
same,remaining binding at 0.01 µM,protein kinases [4]; 10 nM,34%
same,remaining binding at 1 µM,protein kinases [4]; 1000 nM,0.15%
same,remaining binding at 0.001 µM,protein kinases [5]; ABL1(F317L)-phosphorylated,55%
same,remaining binding at 0.01 µM,protein kinases [5]; ABL1(F317L)-phosphorylated,3.7%
same,remaining binding at 1 µM,protein kinases [5]; ABL1(F317L)-phosphorylated,1.1%
same,remaining binding at 0.001 µM,protein kinases [5]; ABL1(F317L)-unphosphorylated,49%
same,remaining binding at 0.01 µM,protein kinases [5]; ABL1(F317L)-unphosphorylated,6.8%
same,remaining binding at 1 µM,protein kinases [5]; ABL1(F317L)-unphosphorylated,0.25%
same,inhibition at 0.0078 µM,"[6]; Homo sapiens, NCI-H1299, 120 h, compound 7.8 nM alone (solvent instead of Trametinib), read-out: cell growth inhibition (percentage)",1.39%
same,inhibition at 0.0156 µM,"[6]; Homo sapiens, NCI-H1299, 120 h, compound 15.6 nM alone (solvent instead of Trametinib), read-out: cell growth inhibition (percentage)",4.59%
same,cell growth inhibition (percentage),[6]; compound 7.8 nM + Trametinib 0.25 nM,11.67%
same,cell growth inhibition (percentage),[6]; compound 7.8 nM + Trametinib 2.5 nM,20.73%
same,cell growth inhibition (percentage),[6]; compound 7.8 nM + Trametinib 25 nM,37.88%
same,cell growth inhibition (percentage),[6]; compound 15.6 nM + Trametinib 0.25 nM,16.82%
same,cell growth inhibition (percentage),[6]; compound 15.6 nM + Trametinib 2.5 nM,26.10%
same,cell growth inhibition (percentage),[6]; compound 15.6 nM + Trametinib 25 nM,42.52%
